Results from US10239843B2 (CANCER RESEARCH TECHNOLOGY LIMITED, priority 2014, dated 2019).
Where two headings read alike, the source gives them in different places.

Legend:
[1] = target: Human Full Length PARG (Homo sapiens (Human), UniProt Q86W56); experiment: PARG enzyme assay (TR-FRET); type: biochemical
[2] = target: Human Full Length ARH3 (Homo sapiens (Human), UniProt Q9NX46); experiment: ARH3 in vitro selectivity assay (TR-FRET); type: biochemical; conditions: read-out: ARH3 Biochem IC50
Procedure: ARH3 In vitro selectivity assays were conducted in a total volume of 15 ul in a standard 384 well format.

[3] = test system: PARG in HeLa cell line; experiment: PARG cell assay (PAR chain immunofluorescence after MMS); type: cell-based; conditions: HeLa cells
Summary of the method: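 HeLa cells were dosed with compound for 1 h, then given MMS at 50 μg/mL final for a further hour. Cells were methanol-fixed, permeabilised and stained overnight at 4° C with anti-PAR monoclonal antibody. Retained nuclear PAR chains, detected by indirect immunofluorescence, indicate PARG inhibition.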

[4] = target: Human High specific Activity PARP1 (Homo sapiens (Human), UniProt P09874); experiment: PARP1 in vitro selectivity assay (histone PARylation, luminescence); type: biochemical; conditions: read-out: PARP1 Biochem IC50
Procedure: PARP1 In vitro selectivity assays were conducted as a 10 ul reaction volume in a NUNC Maxisorp 384-well assay plate pre-coated in-house with Histones. […] The wells were then washed with PBS/0.1% Triton X100. PARP1 activity was then detected by measuring the extent of PARylation. […] Luminescence signal was then measured immediately.

[5] = read-out: PARG Biochem IC50 Geomean
[6] = MMS 50 μg/mL, read-out: PARG Cell IC50 Geomean
[7] = Homo sapiens, MMS treatment, read-out: PARG Cell IC50
[8] = Homo sapiens, MMS 50 μg/mL, read-out: PARG Cell IC50 Geomean

Sequence of Human High specific Activity PARP1 (P09874 whole entry): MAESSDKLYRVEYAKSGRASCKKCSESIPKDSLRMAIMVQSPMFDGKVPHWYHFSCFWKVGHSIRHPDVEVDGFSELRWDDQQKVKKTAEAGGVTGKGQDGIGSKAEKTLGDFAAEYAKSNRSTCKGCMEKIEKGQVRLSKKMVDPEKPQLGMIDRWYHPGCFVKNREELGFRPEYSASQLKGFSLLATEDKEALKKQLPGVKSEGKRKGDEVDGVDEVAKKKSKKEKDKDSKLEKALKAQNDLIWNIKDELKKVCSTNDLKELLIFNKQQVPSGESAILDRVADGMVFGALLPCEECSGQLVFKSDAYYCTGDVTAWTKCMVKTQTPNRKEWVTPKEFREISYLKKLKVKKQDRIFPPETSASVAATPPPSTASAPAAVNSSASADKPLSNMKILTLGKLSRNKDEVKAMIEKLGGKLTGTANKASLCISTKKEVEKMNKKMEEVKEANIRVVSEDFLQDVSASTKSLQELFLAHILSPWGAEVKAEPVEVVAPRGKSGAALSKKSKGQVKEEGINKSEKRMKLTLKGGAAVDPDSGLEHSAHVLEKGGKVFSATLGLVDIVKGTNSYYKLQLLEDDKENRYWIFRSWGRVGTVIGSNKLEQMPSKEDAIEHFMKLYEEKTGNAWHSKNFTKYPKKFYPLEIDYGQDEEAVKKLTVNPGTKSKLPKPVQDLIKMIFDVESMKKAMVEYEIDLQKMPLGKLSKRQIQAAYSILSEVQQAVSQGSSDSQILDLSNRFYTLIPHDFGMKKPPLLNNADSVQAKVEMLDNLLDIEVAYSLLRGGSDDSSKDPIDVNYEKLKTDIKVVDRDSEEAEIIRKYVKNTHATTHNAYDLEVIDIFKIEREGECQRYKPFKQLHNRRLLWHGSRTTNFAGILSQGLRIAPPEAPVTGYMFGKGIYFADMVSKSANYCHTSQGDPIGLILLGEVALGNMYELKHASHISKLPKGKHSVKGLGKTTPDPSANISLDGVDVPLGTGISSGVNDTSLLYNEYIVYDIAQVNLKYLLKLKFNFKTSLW
Sequence of Human Full Length ARH3 (Q9NX46 whole entry): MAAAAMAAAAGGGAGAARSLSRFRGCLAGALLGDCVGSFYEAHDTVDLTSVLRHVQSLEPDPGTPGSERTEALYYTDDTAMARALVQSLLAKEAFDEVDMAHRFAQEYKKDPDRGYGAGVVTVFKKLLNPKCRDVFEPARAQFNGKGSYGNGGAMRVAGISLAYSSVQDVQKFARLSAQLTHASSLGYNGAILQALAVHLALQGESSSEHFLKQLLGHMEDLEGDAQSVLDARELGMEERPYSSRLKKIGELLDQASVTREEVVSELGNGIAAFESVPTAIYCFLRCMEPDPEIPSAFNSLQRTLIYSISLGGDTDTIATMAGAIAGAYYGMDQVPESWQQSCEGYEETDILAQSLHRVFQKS
Sequence of Human Full Length PARG (Q86W56 whole entry): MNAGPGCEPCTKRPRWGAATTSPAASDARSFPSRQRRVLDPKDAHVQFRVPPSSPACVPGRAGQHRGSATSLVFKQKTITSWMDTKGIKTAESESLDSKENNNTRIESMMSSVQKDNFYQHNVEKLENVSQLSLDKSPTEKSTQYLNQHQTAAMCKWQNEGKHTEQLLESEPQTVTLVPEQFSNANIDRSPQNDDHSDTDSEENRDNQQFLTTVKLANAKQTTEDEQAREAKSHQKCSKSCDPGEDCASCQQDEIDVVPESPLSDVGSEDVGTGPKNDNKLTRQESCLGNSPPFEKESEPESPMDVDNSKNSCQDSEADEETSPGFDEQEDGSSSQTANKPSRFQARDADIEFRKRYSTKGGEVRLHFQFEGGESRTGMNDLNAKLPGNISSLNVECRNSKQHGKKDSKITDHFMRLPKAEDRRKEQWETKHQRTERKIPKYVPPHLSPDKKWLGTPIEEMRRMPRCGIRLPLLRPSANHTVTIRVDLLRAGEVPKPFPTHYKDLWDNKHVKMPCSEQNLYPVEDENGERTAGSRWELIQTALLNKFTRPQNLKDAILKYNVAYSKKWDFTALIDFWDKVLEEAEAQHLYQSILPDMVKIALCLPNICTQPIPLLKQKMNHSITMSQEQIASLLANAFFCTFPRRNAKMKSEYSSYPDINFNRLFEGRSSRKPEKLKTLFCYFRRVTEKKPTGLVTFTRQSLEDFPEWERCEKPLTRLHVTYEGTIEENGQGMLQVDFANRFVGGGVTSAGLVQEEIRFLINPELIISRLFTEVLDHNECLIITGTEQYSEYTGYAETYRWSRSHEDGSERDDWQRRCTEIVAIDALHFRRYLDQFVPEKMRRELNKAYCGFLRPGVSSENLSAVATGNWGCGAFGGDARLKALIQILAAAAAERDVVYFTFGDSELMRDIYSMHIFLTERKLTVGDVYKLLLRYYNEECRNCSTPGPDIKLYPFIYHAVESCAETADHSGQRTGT

Row | Compound | IC50 [1, 5] | IC50 [2] | IC50 [3, 6] | IC50 [4] | IC50 ([1]; read-out: PARG Biochem IC50) | IC50 [3, 7] | IC50 [3, 8]
1 | Cc1cc(Cn2nc(CC3CCOCC3)c3ccc(S(=O)(=O)NC4(C)CC4)cc3c2=O)on1 [Example 308] | 274 nM | > 150000 nM | 201 nM | > 150000 nM |  |  | 
2 | CCn1c(=O)n(Cc2nnc(C)s2)c(=O)c2cc(S(=O)(=O)NC3(CF)CC3)ccc21 [Example 602, 1-Ethyl-N-[1-(fluoromethyl)cyclopropyl]-3-[(5-methyl-1,3,4-thiadiazol-2-yl)methyl]-2,4-dioxo-quinazoline-6-sulfonamide] |  | > 150000 nM |  | > 150000 nM | 131 nM | 135 nM | 
3 | Cc1nc(C)c(Cn2c(=O)n(C)c(=O)c3cc(S(=O)(=O)NC4(C)CC4)ccc32)s1 [Example 133] | 184 nM | > 100000 nM | 124 nM | > 150000 nM |  |  | 
4 | Cc1ncc(Cn2c(=O)c3cc(S(=O)(=O)NC4(C)CC4)ccc3n(CC3CC3)c2=O)s1 [Example 156] | 19 nM | > 100000 nM |  | > 150000 nM |  |  | 28 nM
5 | Cc1ncc(Cn2c(=O)c3cc(S(=O)(=O)NC4(C)CC4)ccc3n(Cc3sc(C)nc3C)c2=O)s1 [Example 162] | 4 nM | > 100000 nM | 9 nM | > 150000 nM |  |  | 

Next, values leading:

Row | IC50 [1, 5] | IC50 [2] | IC50 [3, 6] | IC50 [4] | IC50 ([1]; read-out: PARG Biochem IC50) | IC50 [3, 7] | IC50 [3, 8] | Compound
6 | 18 nM | > 150000 nM | 88 nM | > 150000 nM |  |  |  | Cc1cc(Cn2c(=O)n(Cc3cnn(C)c3)c(=O)c3cc(S(=O)(=O)NC4(C)CC4)ccc32)n(C)n1 [Example 173]
7 | 33 nM | > 100000 nM |  | > 150000 nM |  |  | 63 nM | Cc1nc(C)c(Cn2c(=O)n(Cc3c(C)noc3C)c(=O)c3cc(S(=O)(=O)NC4(C)CC4)ccc32)s1 [Example 165]
8 | 426 nM | > 150000 nM |  | > 150000 nM |  |  | 460 nM | Cc1cc(Cn2c(=O)c3cc(S(=O)(=O)NC4(C)CC4)ccc3n(C)c2=O)on1 [Example 180]
9 |  | > 150000 nM |  | > 150000 nM | 6 nM | 9 nM |  | Cc1nc(C)c(Cn2c(=O)n(Cc3cnn(C)c3)c(=O)c3cc(S(=O)(=O)NC4(CF)CC4)ccc32)s1 [Example 463, 1-[(2,4-Dimethylthiazol-5-yl)methyl]-N-[1-(fluoromethyl)cyclopropyl]-3-[(1-methylpyrazol-4-yl)methyl]-2,4-dioxo-quinazoline-6-sulfonamide]
